Key:
[1] = Cytotoxicity against human WS1 cells after 48 hrs by resazurin reduction test; format: cell-based; conditions: WS1, 48 h
[2] = Toxicity in sheep erythrocytes assessed as induction of hemolysis; format: cell-based, Ovis aries, Erythrocyte; conditions: read-out: HD50 (the source's name)
DLD-1 [3] = experiment: Cytotoxicity against human DLD1 cells after 48 hrs by resazurin reduction test; format: functional, cell-based; conditions: DLD-1, 48 h
DLD-1 [4] = experiment: Cell membrane permeabilization in human DLD1 cells assessed as drug level causing decrease in calcein fluorescence; format: ADME, cell-based
[5] = Cell membrane permeabilization in human WS1 cells assessed as drug level causing decrease in calcein fluorescence; format: ADME, cell-based
A549 [6] = experiment: Cytotoxicity against human A549 cells after 48 hrs by resazurin reduction test; format: functional, cell-based; conditions: A549, 48 h
A549 [7] = experiment: Cell membrane permeabilization in human A549 cells assessed as drug level causing decrease in calcein fluorescence; format: ADME, cell-based

Row | SMILES | IC50 (DLD-1 [4]) [µM] | IC50 [5] [µM] | IC50 (A549 [7]) [µM] | IC50 [1] [µM] | HC50 [2] [µM] | IC50 (DLD-1 [3]) [µM] | IC50 (A549 [6]) [µM]
1 | CC1(C)CC[C@]2(C(=O)O)CC[C@]3(C)C(=CC[C@@H]4[C@@]5(C)CC[C@H](O[C@@H]6O[C@H](CO)[C@@H](O)[C@H](O)[C@H]6O)[C@@](C)(CO)[C@@H]5CC[C@]43C)[C@@H]2C1 [Hederagenin-3-O-beta-D-glucopyranoside] | 89 | 102 | 65 | 32 | 16 | 59 | 59
2 | C=C(C)[C@@H]1CC[C@]2(C(=O)O)CC[C@]3(C)[C@H](CC[C@@H]4[C@@]5(C)CC[C@H](O[C@@H]6O[C@@H](C)[C@H](O)[C@@H](O)[C@H]6O)C(C)(C)[C@@H]5CC[C@]43C)[C@@H]12 | > 200 | > 200 | > 200 | 31 | > 100 | 3.9 | 2.6
3 | C=C(C)[C@@H]1CC[C@]2(C(=O)O)CC[C@]3(C)[C@H](CC[C@@H]4[C@@]5(C)CC[C@H](O[C@@H]6O[C@H](CO)[C@@H](O)[C@H](O)[C@H]6O)C(C)(C)[C@@H]5CC[C@]43C)[C@@H]12 | > 200 | > 200 | > 200 | > 100 | > 100 | 32 | > 100
4 | C=C(C)[C@@H]1CC[C@]2(CO)CC[C@]3(C)[C@H](CC[C@@H]4[C@@]5(C)CC[C@H](O[C@@H]6OC[C@H](O)[C@H](O)[C@H]6O[C@@H]6O[C@@H](C)[C@H](O)[C@@H](O)[C@H]6O)C(C)(C)[C@@H]5CC[C@]43C)[C@@H]12 | > 200 | > 200 | > 200 | > 100 | > 100 | > 100 | > 100
5 | C[C@@H]1O[C@@H](O[C@H]2[C@H](O[C@H]3CC[C@@]4(C)[C@@H](CC[C@]5(C)[C@@H]4CC=C4[C@@H]6CC(C)(C)CC[C@]6(C(=O)O)CC[C@]45C)[C@]3(C)CO)OC[C@H](O[C@@H]3O[C@H](CO)[C@@H](O)[C@H](O)[C@H]3O)[C@@H]2O)[C@H](O)[C@H](O)[C@H]1O [HEDERACOLCHISIDE A] | 159 | 86 | 110 | 58 | 22 | 62 | 59
6 | C[C@@H]1O[C@@H](O[C@H]2[C@H](O[C@H]3CC[C@@]4(C)[C@@H](CC[C@]5(C)[C@@H]4CC=C4[C@@H]6CC(C)(C)CC[C@]6(C(=O)O)CC[C@]45C)[C@]3(C)CO)OC[C@H](O)[C@@H]2O)[C@H](O)[C@H](O)[C@H]1O [ALPHA-HEDERIN] | 38 | 24 | 28 | 30 | 10 | 60 | 33
7 | C=C(C)[C@@H]1CC[C@]2(CO)CC[C@]3(C)[C@H](CC[C@@H]4[C@@]5(C)CC[C@H](O[C@@H]6O[C@@H](CO)[C@H](O)[C@H]6O)C(C)(C)[C@@H]5CC[C@]43C)[C@@H]12 | > 200 | > 200 | > 200 | > 100 | > 100 | > 100 | > 100

Second part, led by results:

Row | IC50 (DLD-1 [4]) [µM] | IC50 [5] [µM] | IC50 (A549 [7]) [µM] | SMILES | IC50 [1] [µM] | HC50 [2] [µM] | IC50 (DLD-1 [3]) [µM] | IC50 (A549 [6]) [µM]
8 | 4 | 3 | 4 | C[C@@H]1O[C@@H](O[C@H]2[C@H](O[C@H]3CC[C@]4(C)[C@H]5CC=C6[C@@H]7CC(C)(C)CC[C@]7(C(=O)O)CC[C@@]6(C)[C@]5(C)CC[C@H]4C3(C)C)OC[C@H](O[C@@H]3O[C@H](CO)[C@@H](O)[C@H](O)[C@H]3O)[C@@H]2O)[C@H](O)[C@H](O)[C@H]1O [HEDERACOLCHISIDE A1] | 5.7 | 1.7 | 16 | 15
9 | > 200 | > 200 | > 200 | C=C(C)[C@@H]1CC[C@]2(C(=O)O)CC[C@]3(C)[C@H](CC[C@@H]4[C@@]5(C)CC[C@H](O[C@H]6OC[C@@H](O)[C@@H](O)[C@@H]6O)C(C)(C)[C@@H]5CC[C@]43C)[C@@H]12 | 47 | > 100 | 17 | 10
10 | 54 | 51 | 40 | CC1(C)CC[C@]2(C(=O)O)CC[C@]3(C)C(=CC[C@@H]4[C@@]5(C)CC[C@H](O[C@@H]6OC[C@H](O)[C@H](O)[C@H]6O)[C@@](C)(CO)[C@@H]5CC[C@]43C)[C@@H]2C1 | 30 | 12 | 57 | 58
11 | > 200 | > 200 | > 200 | C=C(C)[C@@H]1CC[C@]2(C(=O)O[C@@H]3O[C@H](CO)[C@@H](O)[C@H](O)[C@H]3O)CC[C@]3(C)[C@H](CC[C@@H]4[C@@]5(C)CC[C@H](O[C@@H]6OC[C@H](O)[C@H](O)[C@H]6O[C@@H]6O[C@@H](C)[C@H](O)[C@@H](O)[C@H]6O)C(C)(C)[C@@H]5CC[C@]43C)[C@@H]12 | > 50 | > 100 | > 50 | > 50
12 | > 200 | > 200 | > 200 | C=C(C)[C@@H]1CC[C@]2(C(=O)O)CC[C@]3(C)[C@H](CC[C@@H]4[C@@]5(C)CC[C@H](O[C@@H]6OC[C@H](O)[C@H](O)[C@H]6O[C@@H]6O[C@@H](C)[C@H](O)[C@@H](O)[C@H]6O)C(C)(C)[C@@H]5CC[C@]43C)[C@@H]12 | > 100 | 78 | > 100 | > 100
13 | > 200 | > 200 | > 200 | CC1(C)CC[C@]2(C(=O)O)CC[C@]3(C)C(=CC[C@@H]4[C@@]5(C)CC[C@H](O)[C@@](C)(CO)[C@@H]5CC[C@]43C)[C@@H]2C1 [HEDERAGENIN] | 77 | > 100 | > 100 | 39
14 | > 200 | > 200 | > 200 | C=C(C)[C@@H]1CC[C@]2(C(=O)O)CC[C@]3(C)[C@H](CC[C@@H]4[C@@]5(C)CC[C@H](O[C@@H]6O[C@@H](CO)[C@H](O)[C@H]6O)C(C)(C)[C@@H]5CC[C@]43C)[C@@H]12 | > 100 | > 100 | > 100 | > 100
15 | > 200 | > 200 | > 200 | C=C(C)[C@@H]1CC[C@]2(CO)CC[C@]3(C)[C@H](CC[C@@H]4[C@@]5(C)CC[C@H](O[C@@H]6OC[C@H](O)[C@H](O)[C@H]6O)C(C)(C)[C@@H]5CC[C@]43C)[C@@H]12 | > 100 | > 100 | > 100 | > 100
16 | > 200 | > 200 | > 200 | C=C(C)[C@@H]1CC[C@]2(CO)CC[C@]3(C)[C@H](CC[C@@H]4[C@@]5(C)CC[C@H](O[C@@H]6O[C@H](CO)[C@@H](O)[C@H](O)[C@H]6O)C(C)(C)[C@@H]5CC[C@]43C)[C@@H]12 | > 100 | > 100 | > 100 | > 100
17 | > 200 | > 200 | > 200 | C=C(C)[C@@H]1CC[C@]2(C(=O)O)CC[C@]3(C)[C@H](CC[C@@H]4[C@@]5(C)CC[C@H](O[C@@H]6OC[C@H](O)[C@H](O)[C@H]6O)C(C)(C)[C@@H]5CC[C@]43C)[C@@H]12 | 19 | > 100 | 11 | 12
